# Laboratory results from US11166462B2, “Fungicidal compound, fungicide composition and preparation and use thereof” (Zhejiang Udragon Bioscience Co., Ltd., priority 2016, dated 2021).
# Legend:
# Rhizoctonia solani = assay: Fungus cake inoculation on pot-cultured seedlings (rice sheath blight); format: in vivo; settings: for control effect against rice sheath blight (in words): at 200 mg/L concentration; for Control effect (%) Rice sheath blight: concentration 200 mg/L, 5% EC diluted with water containing 1% Tween 80
# Procedure: Test Object: Pseudoperonospora cubensis, Rhizoctonia Solani Test design: the compound in a structure expressed by formula (I) (Y14078) and the compound in a structure expressed by formula (II) (Y14079) are prepared with DMF into 5% emulsifiable concentrate (hereafter abbreviated as EC) respectively, and then the EC is diluted with water containing 1% Tween 80 to prepare 200 mg/L formulation. Each process is repeated for 4 times. Test method for Rhizoctonia solani: two pot-cultured seedlings in the same growth state in the true leaf stage are selected, sprayed with the formulation and then dried, and fungus cakes are attached to the leaves with the hypha side facing the leave. The seedlings are kept in a dark environment at 22-26° C. moisturizing for 24 h, and then the natural lighting is recovered, and the seedlings are cultured for about 4 days. After the disease is developed extensively in the control group, the diameter of the disease speckle at each inoculated site is measured with callipers, and the control effect is calculated. 2.
# [1] = tested on: Pseudoperonospora cubensis; assay: Spore suspension spray inoculation method on pot-cultured cucumber seedlings (cucumber downy mildew); format: in vivo; settings: for EC50: Pseudoperonospora cubensis, against cucumber downy mildew, from regression of control effect at 6.25-100 mg/L; for control effect against cucumber downy mildew (in words): at 200 mg/L concentration; for Control effect (%) Cucumber downy mildew: concentration 200 mg/L; for Control effect (%) Cucumber downy mildew / Control effect (%): 5% EC diluted with water containing 1% Tween 80; for Control effect (%): cucumber downy mildew, investigated after 5 d
# Procedure: Test Object: Pseudoperonospora cubensis Test design: the compound in a structure expressed by formula (I) (Y14078), the compound in a structure expressed by formula (II) (Y14079), and a reference chemical amisulbrom are prepared with DMF into 5% emulsifiable concentrate (hereafter abbreviated as EC) respectively, and then the EC is diluted with water containing 1% Tween 80 to 5 concentration gradients, i.e., 100, 50, 25, 12.5, and 6.25 mg/L. Each process is repeated for 4 times. Test method: the biological activity of the formulation is measured with a spore suspension spray inoculation method. Pot-cultured cucumber seedlings in the same growth state in the 1-leaf and 1-heart stage (with the growing point removed) are selected, sprayed with the formulation, and dried naturally. After 24 h, spores on the back side of the leaf infected by the disease is picked with a writing brush dipped with distilled water, and are prepared into spore suspension (2-3×10^5 spores/ml), the spore suspension is sprayed uniformly with an inoculating sprayer (at 0.1 MPa pressure) to the leaves of cucumbers, and then the inoculated cucumber seedlings are moved into a climatic chamber (relative humidity: 100%, temperature: 20° C., light-dark cycle time: 14 h/10 h) and cultured. After 24 h, the relative humidity is maintained at about 90% for induction; after 5 d, grading and investigation are carried out on the basis of the disease situation of the blank control group, and the control effect (%) is calculated according to the disease severity index. Investigation Method and Grading Criteria: Level 0: free from disease; Level 1: disease speckle area accounts for 5% or less of the total area of the leaf; Level 3: disease speckle area accounts for 6%-10% of the total area of the leaf; Level 5: disease speckle area accounts for 11%-25% of the total area of the leaf; Level 7: disease speckle area accounts for 26%-50% of the total area of the leaf; Level 9: disease speckle area accounts for 50% or more of the total area of the leaf. Effect Calculation: Disease index=Σ(quantity of leaves at all levels×relative level value)×100/(total quantity of leaves×9); Control effect (%)=(disease index of the control group−disease index of treated group)×100/disease index of control group Test design: the compound in a structure expressed by formula (I) (Y14078) and the compound in a structure expressed by formula (II) (Y14079) are prepared with DMF into 5% emulsifiable concentrate (hereafter abbreviated as EC) respectively, and then the EC is diluted with water containing 1% Tween 80 to prepare 200 mg/L formulation. Each process is repeated for 4 times. Test method for Pseudoperonospora cubensis: the biological activity of the formulation is measured with a spore suspension spray inoculation method. Pot-cultured cucumber seedlings in the same growth state in the 1-leaf and 1-heart stage (with the growing point removed) are selected, sprayed with the formulation, and dried naturally. After 24 h, spores on the back side of the leaf infected by the disease is picked with a writing brush dipped with distilled water, and are prepared into spore suspension (2-3×10^5 spores/[…]), the spore suspension is sprayed uniformly with an inoculating sprayer (at 0.1 MPa pressure) to the leaves of cucumbers, and then the inoculated cucumber seedlings are moved into a climatic chamber (relative humidity: 100%, temperature: 20° C., light-dark cycle time: 14 h/10 h) and cultured. After 24 h, the relative humidity is maintained at about 90% for induction; after 5 d, grading and investigation are carried out on the basis of the disease situation of the blank control group, and the control effect (%) is calculated according to the disease severity index. 2. […]
melting point [°C],Compound,control effect against rice sheath blight (in words) (Rhizoctonia solani),Control effect (%) Rice sheath blight (Rhizoctonia solani) [%],EC50 [1] [mg/L],control effect against cucumber downy mildew (in words) [1],Control effect (%) Cucumber downy mildew [1] [%],Control effect (%) ([1]; concentration 6.25 mg/L),Control effect (%) ([1]; concentration 12.5 mg/L),Control effect (%) ([1]; concentration 25 mg/L),Control effect (%) ([1]; concentration 50 mg/L),Control effect (%) ([1]; concentration 100 mg/L)
–,CN(C)S(=O)(=O)n1cnc(S(=O)(=O)Oc2ccc3ccccc3c2Br)n1 [Compound Y14078],good control effect,52.5,12.2,especially remarkable,100,35.56,49.97,67.27,76.24,87.58
141 to 143,CN(C)S(=O)(=O)n1cnc(S(=O)(=O)Oc2ccc(Oc3ccccc3)cc2)n1 [Compound Y14079],good control effect,67.5,13.6,especially remarkable,100,31.21,47.79,59.89,85.56,94.63
